Assay results from ChEMBL document CHEMBL1255359, “Mechanisms of macrolide resistance among Streptococcus pneumoniae isolates from Russia” (2008).
Values after ≈ are worked out from the molar mass of the structure shown.

What was measured:
Assay type in all cases: functional
Streptococcus pneumoniae [1] = test: Antibacterial activity against macrolide resistant and mef(E)-positive Streptococcus pneumoniae by broth dilution method
Streptococcus pneumoniae [2] = test: Antibacterial activity against inducible macrolide-lincosamide-streptogramin B resistant and erm(B)-positive Streptococcus pneumoniae by broth dilution method
Streptococcus pneumoniae [3] = test: Antibacterial activity against macrolide resistant and mef-positive Streptococcus pneumoniae by broth dilution method
Streptococcus pneumoniae [4] = test: Antibacterial activity against macrolide resistant and mef(I)-positive Streptococcus pneumoniae by broth dilution method
Streptococcus pneumoniae [5] = test: Antibacterial activity against constitutive macrolide-lincosamide-streptogramin B resistant erm(B) and mef(E)-positive Streptococcus pneumoniae by broth dilution method
Streptococcus pneumoniae [6] = test: Antibacterial activity against inducible macrolide-lincosamide-streptogramin B resistant erm(B) and mef(E)-positive Streptococcus pneumoniae by broth dilution method
Streptococcus pneumoniae [7] = test: Antibacterial activity against constitutive macrolide-lincosamide-streptogramin B resistant and erm(B)-positive Streptococcus pneumoniae by broth dilution method

Row | Structure (SMILES) | MIC (Streptococcus pneumoniae [1]) [µg/mL] | MIC (Streptococcus pneumoniae [2]) [µg/mL] | MIC (Streptococcus pneumoniae [3]) [µg/mL] | MIC (Streptococcus pneumoniae [4]) [µg/mL] | MIC (Streptococcus pneumoniae [5]) [µg/mL] | MIC (Streptococcus pneumoniae [6]) [µg/mL] | MIC (Streptococcus pneumoniae [7]) [µg/mL]
1 | CCC[C@@H]1C[C@@H](C(=O)N[C@@H]([C@H]2O[C@H](SC)[C@H](O)[C@@H](O)[C@H]2O)[C@H](C)Cl)N(C)C1 [CLINDAMYCIN] | 0.015 (≈ 0.0353 µM) | ≥ 2 | 0.03 (≈ 0.0706 µM) | 0.015 (≈ 0.0353 µM) | ≥ 8 | ≥ 32 | ≥ 32
2 | CC[C@H]1OC(=O)[C@H](C)[C@@H](O[C@H]2C[C@@](C)(OC)[C@@H](O)[C@H](C)O2)[C@H](C)[C@@H](O[C@@H]2O[C@H](C)C[C@H](N(C)C)[C@H]2O)[C@](C)(O)C[C@@H](C)C(=O)[C@H](C)[C@@H](O)[C@]1(C)O [ERYTHROMYCIN] | 1 (≈ 1.36 µM) | ≥ 2 | 8 (≈ 10.9 µM) | 2 (≈ 2.73 µM) | ≥ 32 | ≥ 32 | ≥ 32
